Test results taken from US9878984B2, “Anti-cancer compounds” (NORTHWESTERN UNIVERSITY, priority 2008, dated 2018).

Legend:
pBR322 plasmid DNA = test: DNA intercalation assay (topoisomerase I based plasmid DNA unwinding); type: biochemical; details: 10, 31.6, and 100 μM, human topoisomerase I
Experimental: DNA Intercalation Assay: A DNA unwinding assay was performed as previously described with minor modifications. Four Units of recombinant wild type human topoisomerase I (Topogen—Port Orange, Fla.) were incubated with reaction buffer (included with enzyme), ˜0.5 μg of pBR322 plasmid DNA, which is a mixture of form I and form II plasmid DNA, and water added to a final volume of 19 μL. The reactions were incubated at 37° C. for 30 min and then 1 μL of each compound was added to give a final concentration of 10, 31.6, and 100 μM (final solvent concentration of 1% DMSO) and the reaction mixture was incubated at 37° C. for another 30 min. The reaction was stopped by the addition of 5 μL gel loading dye. The samples were immediately loaded onto a 1% agarose gel and electrophoresis was performed at 50 V for 3 h at room temperature. Pictures of the gels were obtained using a Kodak Image Station 440 CF (Kodak—Rochester, N.Y.) equipped with a UV source.
This activity depends on the ability of these compounds to intercalate DNA, which is the proposed mechanism of cytotoxic action of amonafide and its analogs. Therefore, the intercalation of plasmid DNA by A1-A9 was compared with the intercalation by amonafide to determine if they behave similarly. A topoisomerase I (topo I) based plasmid DNA unwinding assay was used to determine the intercalation of each compound [1]. […]

[1] = target: T1, wild type recombinant human NAT2 (NAT2*4) (Homo sapiens, UniProt P11245); test: NAT2 acetylation assay (mass spectrometry); type: in vitro ADME; details: 200 μM compound, 100 μg NAT2*4, 400 μM AcetylCoA, 10 min
T1 construct: made in house; host or cells: E. coli
T1 sequence (P11245 1-290): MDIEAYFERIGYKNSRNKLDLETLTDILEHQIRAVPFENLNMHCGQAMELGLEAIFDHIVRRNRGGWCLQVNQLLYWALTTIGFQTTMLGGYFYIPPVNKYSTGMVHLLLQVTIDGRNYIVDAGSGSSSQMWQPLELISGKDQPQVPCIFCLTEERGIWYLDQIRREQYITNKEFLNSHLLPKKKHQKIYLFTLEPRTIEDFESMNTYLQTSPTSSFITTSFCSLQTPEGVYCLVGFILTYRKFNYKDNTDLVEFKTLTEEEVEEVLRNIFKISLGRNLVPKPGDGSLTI
Experimental: NAT2 Assay: This assay was performed using a wild type recombinant human NAT2 (NAT2*4) that was purified from E. coli as previously described. The volume of each reaction was 500 μL with 200 μM amonafide, A1, or A2, 100 μg NAT2*4, and 400 μM AcetylCoA (Sigma-Poole, UK). Reactions were run for 0 or 10 min and stopped by addition of 500 μL of 20% (w/v) trichloroacetic acid (TCA-Sigma-Poole, UK) to give a final TCA concentration of […], which precipitates the enzyme. Two control assays, lacking either enzyme or compound, were performed for each compound. The reaction mixtures were prepared for analysis by isolation of the compounds from the reaction matrix by solid-phase extraction. In brief, 100 μL of the reaction mixture was added to 1 mL of 2% acetic acid. The sorbent of an Oasis HLB 30 mg Extraction Cartridge (Waters Chromatography—Milford, Mass.) was conditioned with 1 mL of methanol and 1 mL of water, the prepared sample was applied to the conditioned sorbent, and the sorbent was washed with 1 mL of 5% methanol. Samples were eluted with 200 μL methanol followed by 800 μL of 0.1% formic acid in methanol. The eluant was analyzed by an API 3000 LC-MS/MS system (Applied Biosystems—Foster City, Calif.). Samples were infused at 5 μL/min directly into the TurboIonSpray Source (Applied Biosystems—Foster City, Calif.), which was operated in the positive ionization mode. […]

SMILES	DNA intercalation (pBR322 plasmid DNA)	N-acetylation by NAT2 (ratio of acetylated to parent compound) [1]	N-acetylation by NAT2 (ratio of acetylated to parent compound) ([1]; listed as Amonafide)
CN(C)CCN1C(=O)c2cccc3c(N)ccc(c23)C1=O [A1, 6-amino-2-[2-(dimethylamino)ethyl]-1H-benz[de]isoquinoline-1,3(2H)-dione]	intercalated DNA to a lesser extent than amonafide and the other derivatives	–	–
CN(C)CCN1C(=O)c2cccc3cc(N)cc(c23)C1=O [amonafide, reference compound]	–	extensively acetylated	underwent extensive acetylation
